Data: PubChem BioAssay (NCI)
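Compound exposure: 48 hours, 5 concentrations, 96-well plates. The concentration for full growth arrest is given as TGI.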

Key:
Test in all cases: growth of human tumour cells (NCI), 48 h
LOX IMVI melanoma = tested on: LOX IMVI melanoma
CCRF-CEM leukemia = tested on: CCRF-CEM leukemia
MCF7 breast = tested on: MCF7 breast
SF-295 CNS = tested on: SF-295 CNS
BT-549 breast = tested on: BT-549 breast
SK-MEL-28 melanoma = tested on: SK-MEL-28 melanoma
NCI-H23 lung = tested on: NCI-H23 lung
SK-MEL-5 melanoma = tested on: SK-MEL-5 melanoma
EKVX NSCLC = tested on: EKVX NSCLC
RPMI-8226 leukemia = tested on: RPMI-8226 leukemia
M14 melanoma = tested on: M14 melanoma
COLO 205 colon = tested on: COLO 205 colon
SK-OV-3 ovarian = tested on: SK-OV-3 ovarian
A498 renal = tested on: A498 renal
HT29 colon = tested on: HT29 colon
UACC-62 melanoma = tested on: UACC-62 melanoma
ACHN renal = tested on: ACHN renal
IGROV1 ovarian = tested on: IGROV1 ovarian
OVCAR-8 ovarian = tested on: OVCAR-8 ovarian
DU-145 prostate = tested on: DU-145 prostate
MOLT-4 leukemia = tested on: MOLT-4 leukemia
CAKI-1 renal = tested on: CAKI-1 renal
HOP-92 NSCLC = tested on: HOP-92 NSCLC
NCI-H460 lung = tested on: NCI-H460 lung
MALME-3M melanoma = tested on: MALME-3M melanoma
HL-60(TB) leukemia = tested on: HL-60(TB) leukemia
HCT-116 colon = tested on: HCT-116 colon
HCC-2998 colon = tested on: HCC-2998 colon
NCI-H522 lung = tested on: NCI-H522 lung
RXF 393 renal = tested on: RXF 393 renal
SNB-75 CNS = tested on: SNB-75 CNS
MDA-MB-435 = tested on: MDA-MB-435
NCI-H226 lung = tested on: NCI-H226 lung
SNB-19 CNS = tested on: SNB-19 CNS
UO-31 renal = tested on: UO-31 renal
HOP-62 NSCLC = tested on: HOP-62 NSCLC
786-0 renal = tested on: 786-0 renal
NCI/ADR-RES ovarian = tested on: NCI/ADR-RES ovarian
TK-10 renal = tested on: TK-10 renal
OVCAR-4 ovarian = tested on: OVCAR-4 ovarian
T-47D breast = tested on: T-47D breast
OVCAR-5 ovarian = tested on: OVCAR-5 ovarian
SF-268 CNS = tested on: SF-268 CNS
KM12 colon = tested on: KM12 colon
SF-539 CNS = tested on: SF-539 CNS
HS 578T breast = tested on: HS 578T breast
HCT-15 colon = tested on: HCT-15 colon
SW-620 colon = tested on: SW-620 colon
UACC-257 melanoma = tested on: UACC-257 melanoma
PC-3 prostate = tested on: PC-3 prostate
SN12C renal = tested on: SN12C renal
A549 NSCLC = tested on: A549 NSCLC
OVCAR-3 ovarian = tested on: OVCAR-3 ovarian
MDA-N = tested on: MDA-N
MDA-MB-231 breast = tested on: MDA-MB-231 breast
U251 CNS = tested on: U251 CNS
K-562 leukemia = tested on: K-562 leukemia
SR leukemia = tested on: SR leukemia
SK-MEL-2 melanoma = tested on: SK-MEL-2 melanoma

With COC(C)(C)C(O)C(O)C[C@H](C)C1CC=C2C1(C)CCC1[C@@]3(C)CCC(OC(C)=O)C(C)(C)C3CC(OC3OC(COC(C)=O)C(O)C(O)C3O)[C@@]21C (stereo partly specified) the TGI (LOX IMVI melanoma) was 6.55 µM, the TGI (CCRF-CEM leukemia) was 7.96 µM and the TGI (MCF7 breast) was > 10 µM. The TGI (SF-295 CNS) was > 10 µM, the TGI (BT-549 breast) was > 10 µM and the TGI (SK-MEL-28 melanoma) was > 10 µM. For the same compound, the TGI (NCI-H23 lung) was > 10 µM, the TGI (SK-MEL-5 melanoma) was 4.38 µM and the TGI (EKVX NSCLC) was > 10 µM. For the same compound, the TGI (RPMI-8226 leukemia) was 5.14 µM, the TGI (M14 melanoma) was > 10 µM and the TGI (COLO 205 colon) was 3.89 µM. The TGI (SK-OV-3 ovarian) was > 10 µM, the TGI (A498 renal) was 8.68 µM and the TGI (HT29 colon) was 9.01 µM. For the same compound, the TGI (UACC-62 melanoma) was > 10 µM, the TGI (ACHN renal) was > 10 µM and the TGI (IGROV1 ovarian) was 8.04 µM. The TGI (OVCAR-8 ovarian) was > 10 µM, the TGI (DU-145 prostate) was > 10 µM and the TGI (MOLT-4 leukemia) was 4.13 µM. For the same compound, the TGI (CAKI-1 renal) was > 10 µM, the TGI (HOP-92 NSCLC) was > 10 µM and the TGI (NCI-H460 lung) was > 10 µM. For the same compound, the TGI (MALME-3M melanoma) was > 10 µM, the TGI (HL-60(TB) leukemia) was 5.54 µM and the TGI (HCT-116 colon) was > 10 µM. The TGI (HCC-2998 colon) was 6.15 µM, the TGI (NCI-H522 lung) was 8.7 µM and the TGI (RXF 393 renal) was > 10 µM. The TGI (SNB-75 CNS) was > 10 µM, the TGI (MDA-MB-435) was > 10 µM and the TGI (NCI-H226 lung) was > 10 µM. For the same compound, the TGI (SNB-19 CNS) was > 10 µM, the TGI (UO-31 renal) was 2.07 µM and the TGI (HOP-62 NSCLC) was > 10 µM. For the same compound, the TGI (786-0 renal) was > 10 µM, the TGI (NCI/ADR-RES ovarian) was > 10 µM and the TGI (TK-10 renal) was > 10 µM. The TGI (OVCAR-4 ovarian) was > 10 µM, the TGI (T-47D breast) was 8.73 µM and the TGI (OVCAR-5 ovarian) was > 10 µM. For the same compound, the TGI (SF-268 CNS) was > 10 µM, the TGI (KM12 colon) was > 10 µM and the TGI (SF-539 CNS) was > 10 µM. For the same compound, the TGI (HS 578T breast) was > 10 µM, the TGI (HCT-15 colon) was > 10 µM and the TGI (SW-620 colon) was > 10 µM. The TGI (UACC-257 melanoma) was > 10 µM, the TGI (PC-3 prostate) was > 10 µM and the TGI (SN12C renal) was > 10 µM. The TGI (A549 NSCLC) was > 10 µM, the TGI (OVCAR-3 ovarian) was 9.79 µM and the TGI (MDA-N) was > 10 µM. For the same compound, the TGI (MDA-MB-231 breast) was 9.73 µM, the TGI (U251 CNS) was > 10 µM and the TGI (K-562 leukemia) was > 10 µM.

For COC(=O)c1cc(NC2OCC(OC(C)=O)C(OC(C)=O)C2OC(C)=O)nc(SC)c1C(=O)OC (stereo unspecified), the TGI (LOX IMVI melanoma) was > 100 µM, the TGI (CCRF-CEM leukemia) was > 100 µM and the TGI (MCF7 breast) was > 100 µM. The TGI (SF-295 CNS) was > 100 µM, the TGI (BT-549 breast) was > 100 µM and the TGI (SR leukemia) was > 100 µM. The TGI (SK-MEL-28 melanoma) was > 100 µM, the TGI (NCI-H23 lung) was > 100 µM and the TGI (SK-MEL-5 melanoma) was > 100 µM. The TGI (EKVX NSCLC) was > 100 µM, the TGI (RPMI-8226 leukemia) was > 100 µM and the TGI (M14 melanoma) was > 100 µM. The TGI (COLO 205 colon) was > 100 µM, the TGI (HT29 colon) was > 100 µM and the TGI (UACC-62 melanoma) was > 100 µM. The TGI (ACHN renal) was > 100 µM, the TGI (IGROV1 ovarian) was > 100 µM and the TGI (OVCAR-8 ovarian) was > 100 µM. The TGI (DU-145 prostate) was > 100 µM, the TGI (MOLT-4 leukemia) was > 100 µM and the TGI (CAKI-1 renal) was > 100 µM. For the same compound, the TGI (HOP-92 NSCLC) was > 100 µM, the TGI (NCI-H460 lung) was > 100 µM and the TGI (HL-60(TB) leukemia) was > 100 µM. For the same compound, the TGI (HCT-116 colon) was > 100 µM, the TGI (HCC-2998 colon) was > 100 µM and the TGI (NCI-H522 lung) was > 100 µM. For the same compound, the TGI (SNB-75 CNS) was > 100 µM, the TGI (MDA-MB-435) was > 100 µM and the TGI (SNB-19 CNS) was > 100 µM. For the same compound, the TGI (UO-31 renal) was > 100 µM, the TGI (HOP-62 NSCLC) was > 100 µM and the TGI (786-0 renal) was > 100 µM. For the same compound, the TGI (NCI/ADR-RES ovarian) was > 100 µM, the TGI (TK-10 renal) was > 100 µM and the TGI (OVCAR-4 ovarian) was > 100 µM. The TGI (T-47D breast) was > 100 µM, the TGI (SK-MEL-2 melanoma) was > 100 µM and the TGI (OVCAR-5 ovarian) was > 100 µM. For the same compound, the TGI (SF-268 CNS) was > 100 µM, the TGI (KM12 colon) was > 100 µM and the TGI (SF-539 CNS) was > 100 µM. The TGI (HS 578T breast) was > 100 µM, the TGI (HCT-15 colon) was > 100 µM and the TGI (SW-620 colon) was > 100 µM. The TGI (UACC-257 melanoma) was > 100 µM, the TGI (PC-3 prostate) was > 100 µM and the TGI (SN12C renal) was > 100 µM. For the same compound, the TGI (A549 NSCLC) was > 100 µM, the TGI (OVCAR-3 ovarian) was > 100 µM and the TGI (MDA-N) was > 100 µM. The TGI (MDA-MB-231 breast) was > 100 µM and the TGI (U251 CNS) was > 100 µM.

For CCCCCCNC(=O)c1cc(NCc2cc(OC)ccc2OC)ccc1O, the TGI (LOX IMVI melanoma) was 32.9 µM, the TGI (CCRF-CEM leukemia) was 68.6 µM and the TGI (MCF7 breast) was 53.5 µM. The TGI (SF-295 CNS) was 30.1 µM, the TGI (BT-549 breast) was 33.4 µM and the TGI (SK-MEL-28 melanoma) was > 100 µM. The TGI (NCI-H23 lung) was 80.6 µM, the TGI (SK-MEL-5 melanoma) was 28.4 µM and the TGI (EKVX NSCLC) was 63.1 µM. For the same compound, the TGI (RPMI-8226 leukemia) was 35.6 µM, the TGI (M14 melanoma) was 38.4 µM and the TGI (COLO 205 colon) was 33.9 µM. It also gave a TGI (SK-OV-3 ovarian) of 36.9 µM, a TGI (HT29 colon) of 85.2 µM and a TGI (UACC-62 melanoma) of 33 µM. The TGI (ACHN renal) was > 100 µM, the TGI (IGROV1 ovarian) was 55 µM and the TGI (OVCAR-8 ovarian) was 86.7 µM. For the same compound, the TGI (DU-145 prostate) was > 100 µM, the TGI (MOLT-4 leukemia) was 66.5 µM and the TGI (CAKI-1 renal) was 98 µM. The TGI (HOP-92 NSCLC) was 31.7 µM, the TGI (NCI-H460 lung) was 84.4 µM and the TGI (MALME-3M melanoma) was 55.9 µM. It also gave a TGI (HL-60(TB) leukemia) of 46 µM, a TGI (HCT-116 colon) of 49.6 µM and a TGI (HCC-2998 colon) of 68.4 µM. The TGI (NCI-H522 lung) was 33.1 µM, the TGI (RXF 393 renal) was 56.5 µM and the TGI (SNB-75 CNS) was 76.3 µM. For the same compound, the TGI (MDA-MB-435) was 44.8 µM, the TGI (NCI-H226 lung) was 64.9 µM and the TGI (SNB-19 CNS) was > 100 µM. The TGI (UO-31 renal) was 53.1 µM, the TGI (786-0 renal) was 75 µM and the TGI (NCI/ADR-RES ovarian) was 48.1 µM. The TGI (TK-10 renal) was > 100 µM, the TGI (OVCAR-4 ovarian) was 70.5 µM and the TGI (T-47D breast) was 46.1 µM. For the same compound, the TGI (SK-MEL-2 melanoma) was 45.8 µM, the TGI (OVCAR-5 ovarian) was > 100 µM and the TGI (SF-268 CNS) was 32.3 µM. It also gave a TGI (KM12 colon) of 80 µM, a TGI (SF-539 CNS) of 36.3 µM and a TGI (HS 578T breast) of 97.9 µM. For the same compound, the TGI (HCT-15 colon) was 57.3 µM, the TGI (SW-620 colon) was > 100 µM and the TGI (UACC-257 melanoma) was 45.7 µM. The TGI (PC-3 prostate) was 45.7 µM, the TGI (SN12C renal) was 53.7 µM and the TGI (A549 NSCLC) was > 100 µM. It also gave a TGI (OVCAR-3 ovarian) of 7.05 µM, a TGI (MDA-N) of 41.8 µM and a TGI (MDA-MB-231 breast) of 46.7 µM. For the same compound, the TGI (U251 CNS) was 41.1 µM and the TGI (K-562 leukemia) was 47.3 µM.
